Assay results from US6514961B1, “Azetidinecarboxamide derivatives for the treatment of CNS disorders” (Vernalis Research Limited, priority 1998, dated 2003).

Experiments:
[1] = tested on: anxiety (elevated zero-maze); test: Elevated zero-maze model of anxiolytic activity; format: in vivo, rats; conditions: dose of 30 mg/Kg, orally 1 hour prior to zero-maze testing
From the text: Measurement of Anxiolytic Activity in Mice Using the Elevated Zero-maze Model
The elevated “zero-maze” is a modification of the elevated plus-maze model of anxiety which incorporates both traditional and novel ethological measures in the analysis of drug effects (Shepherd, J. K., Grewal, S. S., Fletcher, A., Bill, D. J. and Dourish, C. T., Behavioural and pharmacological characterisation of the elevated “zero-maze” as an animal model of anxiety. Psychopharmacology, 1994, 116, 56-64).
Male Sprague-Dawley rats (Charles River) weighing 300-450 gm are used. Animals are group-housed (5 per cage; cage size: 40×40×20 cm) in a temperature-controlled environment (20±2° C.), under a 12 h light-dark cycle (lights on: 08:00 hours). Food and water are made freely available. Four hours prior to testing, animals are transferred to clean cages and moved to the testing room in order to habituate to the testing environment.
The maze is comprised of a black Perspex annular platform (105 cm diameter, 10 cm width) elevated to 65 cm above ground level, divided equally into four quadrants. […]
Rats are placed on a closed quadrant and a 5 min test period is recorded on video-tape. […] Animals are scored as being in the open area when all four paws were in an open quadrant, and in the closed area only when all four paws passed over the open/closed divide. […]

Solubility measurement = format: physicochemical
3-MPA-induced seizures = test: Antagonism of 3-MPA-induced seizures; format: in vivo; conditions: male T/O mice; test drug 30 ng/kg p.o. 60 min before i.v. bolus of 3-MPA; dose of 3-MPA required to evoke a seizure response
Procedure: Antagonism of 3-MPA-Induced Seizures
Several animal seizure models are available for the screening and characterisation of anticonvulsant (antiepileptic) drugs. Most models employ a chemical convulsant to induce seizures and the anticonvulsant potencies of novel compounds are measured in terms of their ability to increase the dose of convulsant required to induce a seizure response (or to prolong the latency to seizure onset following a bolus dose of the convulsant). Most chemical convulsants work by blocking the neurotransmitter function of gamma-aminobutyric acid (GABA), the predominant inhibitory neurotransmitter in the mammalian brain. This can be achieved by blocking the postsynaptic action of GABA using pentylenetetrazol or bicuculline, or via a presynaptic action using a GABA synthesis inhibitor to decrease GABA release into the synapse. In this case, the inhibitor of glutamate decarboxylase (GAD), 3-mercaptopropionic acid (3-MPA), was used as the convulsant challenge agent.
Male albino T/O strain mice (obtained from Tuck) weighing 28-40 g were used in these studies. Animals were assigned randomly to treatment groups and vehicle or test drug (at a dose of […]) were administered p.o. to groups of 12 animals 60 min before the administration of a bolus dose of 3-MPA intravenously. Immediately following 3-MPA administration, each mouse was placed individually into a cage for observation. The seizure response of each animal was scored quantally as present or absent (response or non-response) during the 5 min period immediately following 3-MPA administration. A seizure response was defined as the onset of the initial clonic phase of the seizure (abrupt loss of righting reflex accompanied by vocalisation). The seizure threshold (in terms of mg/kg i.v. of 3-MPA required to evoke a seizure response) was determined in each treatment group by a sequential up/down method followed by modified probit analysis of the quantal data A range of doses of 3-MPA was prepared (12.5-200.0 mg/kg i.v.) increasing by a constant geometric factor […], which was found in pilot studies to generate suitable data for analysis by this method.
In these studies, 3-MPA was obtained from Sigma
Test compounds were prepared as solutions dissolved in 45% w/v aqueous 2-hydroxypropyl-β-cyclodextrin. 3-MPA was dissolved in isotonic saline and its pH adjusted to 6 using 1M sodium hydroxide solution. Drugs were administered in a dose volume of 10 ml/kg body weight.

Row | Aqueous solubility at 1 mg/ml (Solubility measurement) | Structure (SMILES) | SC = seizure threshold after treatment with test drug (3-MPA-induced seizures) [mg/kg i.v.] | also measured
1 | – | C[C@@H](O)CNC(=O)N1CC(Oc2ccc(Cl)cc2)C1 (racemic) [Example 7, (R,S)-3-(4-Chlorophenoxy)-N-(2-hydroxypropyl)azetidine-1-carboximide] | – | anxiolytic activity (increase in the frequency of head dips) [1]: effective
2 | Not soluble | C=CCNC(=O)N1CC(Oc2ccc(C(F)(F)F)cc2)C1 [3-(4-(trifluoromethyl)phenoxy)-N-(2-propenyl)azetidine-1-carboxamide] | – | –
3 | Not soluble | CCCNC(=O)N1CC(Oc2ccc(Cl)cc2)C1 [3-(4-chlorophenoxy)-N-(propyl)azetidine-1-carboxamide] | – | –
4 | Not soluble | NC(=O)N1CC(Oc2ccc(Cl)cc2)C1 [3-(4-chlorophenoxy)azetidine-1-carboxamide] | – | –
5 | – | C[C@@H](O)CNC(=O)N1CC(Oc2ccc(C(C)(C)C)cc2)C1 [Example 1, (R)-3-(4-tert-Butylphenoxy)-N-(2-hydroxypropyl)azetidine-1-carboxamide] | 154.3 | melting point: 98 to 99 °C
6 | – | C[C@H](O)CNC(=O)N1CC(Oc2ccc(Cl)cc2)C1 [Example 3, (S)-3-(4-Chlorophenoxy)-N-(2-hydroxypropyl)azetidine-1-carboxamide] | 59.5 | –
7 | – | CC(C)(O)CNC(=O)N1CC(Oc2ccc(Cl)cc2)C1 [Example 4, 3-(4-Chlorophenoxy)-N-(2-hydroxy-2-methylpropyl)azetidine-1-carboxamide] | 36.9 | –
8 | – | C[C@@H](O)CNC(=O)N1CC(Oc2ccc(F)cc2)C1 [Example 5, (R)-3-(4-Fluorophenoxy)-N-(2-hydroxypropyl)azetidine-1-carboxamide] | 29.8 | melting point: 112 to 114 °C
9 | – | C[C@@H](O)CNC(=O)N1CC(Oc2ccc(Cl)c(Cl)c2)C1 [Example 6, (R)-3-(3,4-Dichlorophenoxy)-N-(2-hydroxypropyl)azetidine-1-carboxamide] | 59.5 | –

Row | Structure (SMILES) | Aqueous solubility at 1 mg/ml (Solubility measurement) | SC = seizure threshold after treatment with test drug (3-MPA-induced seizures) [mg/kg i.v.] | also measured
10 | C[C@@H](O)CNC(=O)N1CC(Oc2ccc(Cl)cc2)C1 [Example 2, (R)-3-(4-Chlorophenoxy)-N-(2-hydroxypropyl)azetidine-1-carboxamide] | Soluble | 109.1 | –
11 | C[C@@H](O)CNC(=O)N1CC(Oc2ccc(C(F)(F)F)cc2)C1 [Example 8] | Soluble | 214.1 | –
